According to patent US9827316B2, “Cardiovascular disease treatment and prevention” (priority 2013, dated 2017):

Key:
[1] = Nitric oxide gas bubbled through carrier, change in weight; format: physicochemical; settings: NO bubbled 40 hr, 25 ° C.
Experimental: This example illustrates one technique for preparing a composition in accordance with one embodiment of the invention. An accurate amount of a carrier (HNC 167-62) (see below) was introduced into a system. The carrier weight used in these experiments was approximately 250 g and the vessel size was 500 ml. The vessel was equipped with a mechanical stirrer, gas inlet, and gas outlet and was previously purged with argon for about an hour. The temperature of the carrier was kept at about 25-30° C. NO gas regulated at 5 psi (1 psi is about 6,900 Pa) and was then introduced at a controlled rate of about 1 bubble/s with continuous stirring. […] After 6 hours, the weight of the carrier had increased by 0.15%, by 12 hours by 0.25%, and by 24 hours by 0.56%. These increases in weight were believed to be significant considering the relative small molecular weight of NO versus the carrier. […] The carrier also can solidify upon cooling if the carrier is initially a solid at lower temperature.
Each carrier was taken in a 500 mL three necked flask equipped with a mechanical stirrer, gas inlet and a gas outlet. The system was purged with argon for one hour at room temperature (25° C.). Then nitric oxide gas was bubbled into the system. Then, nitric oxide gas was bubbled through carrier for stipulated amount of time. The changes in weight and color were noted. […]

[2] = Laser Doppler capillary blood flow in humans, 10,000 ppm NO in closed chamber (Example 5); format: in vivo, human; settings: positive control, 1/10% in alcohol applied to skin
From the text: The formulation used in these studies contained nitric oxide dispersed in a lipid matrix. […] Nitric oxide is a very rapid acting molecule, and these studies used a system that employed laser Doppler with a covered chamber. The formulation was placed into the chamber and then attached to the skin by an adhesive layer on the covering. This provided a stable measuring device as determined by multiple normal evaluations of the capillary blood flow without treatment of nitric oxide.
A known positive control, methyl nicotinate, was applied to the skin at a concentration of 1/10% in alcohol. […] The vascular dynamics are such that when the blood vessels dilate physical parameters follow Bernoulli's law. This states that as one increases the diameter of a tube containing a liquid to flow will increase but the pressure and the speed of the liquid will decrease. The laser Doppler device accurately measured these parameters.
The test product was labeled as 10,000 ppm NO (nitric oxide). The study participants had 100 mg of the test product applied in a closed Hilltop chamber on the forearm. […]
A Moor Instruments DRT4 Laser Doppler Blood Flow Monitor (Devon, England) was used in these studies. The laser Doppler technique measured blood flow in the microcapillaries of the skin that are close to the skin surface and the blood flow in underlying arterioles and venules that help to regulate skin temperature. […]

[3] = Laser Doppler circulation in five human subjects (Example 8); format: in vivo; settings: positive control formulation, 0.1%
From the text: This example illustrates delivery of nitric oxide formulations to five human subjects, using procedures and formulations similar to those discussed in Example 5. Each person served as their own control for the testing. A Moor Instruments Laser Doppler was used to determine circulation. […] The formulations used produce positive, almost immediate results when applied to the skin which, in these studies, was manifested by vasodilatation of the cutaneous vascular system.
For each subject, the following creams were applied: a negative control formulation (containing no NO), 0.010 gram of a 10,000 ppm NO formulation, 0.020 gram of a 10,000 ppm NO formulation, and a positive control formulation containing 0.1% methyl nicotinate. The formulations were prepared using procedures similar to those discussed in Example 1.

## OCCCO [1,3-Propanediol, 1,3-propanediol]
[1]
  % Wt. gain: 0.09%

## COC(=O)c1cccnc1 [methyl nicotinate]
[2]
  laser Doppler response of skin blood flow: rapid response typical of the vasodilator
[3]
  vasodilatation: vasodilatation was observed
